# Marks after values point to notes of the source that are not given here.
# Legend:
# [1] = test system: Candida albicans ATCC10231; assay: Broth microdilution MIC/MMC; assay type: cell-based
# Method: (§1) The antimicrobial activity was performed against five bacterial and two fungal species. The selected microorganisms were the Gram-positive (Staphylococcus aureus ATCC25923, methicillin-resistant Staphylococcus aureus 03 (MRSA03), and methicillin-resistant Staphylococcus aureus 04 (MRSA04)) and Gram-negative (Pseudomonas aeruginosa ATCC27853 and Escherichia coli S2(1)) bacteria and yeast strains of Candida albicans ATCC10231 and Cryptococcus neoformans H99. These microorganisms were taken from our laboratory collection. The fungal and bacterial strains were conserved on Sabouraud Dextrose Agar (SDA, Conda, Madrid, Spain) and nutrient agar (NA, Conda) slants, respectively.
# (§2) The antimicrobial activity was investigated by determining the minimum inhibitory concentrations (MICs), minimum bactericidal concentrations (MBC), and minimum fungicidal concentrations (MFCs). MICs of extracts/compounds were monitored using the broth microdilution method. Dimethyl sulfoxide (DMSO, Fisher Chemicals) was used to dissolve the test sample to produce a stock solution that was twofold serially diluted in Mueller-Hinton broth (MHB) for bacteria and Sabouraud Dextrose Broth (SDB) for fungi to obtain a concentration range of 4096 to 0.25 μg/mL. One hundred microliters of each concentration was introduced into a well (96-well microplate) containing 90 μL of SDB or MHB and 10 μL of inoculum (at 1 × 10^6 CFU/mL for bacteria and 1 × 10^5 spores/mL for yeasts) which were added to obtain a final concentration range of 2048 to 0.125 μg/mL. Plates were covered and incubated on the shaker at 37°C, 30°C, and 30°C during 24 h, 48 h, and 72 h for bacteria, Candida albicans, and Cryptococcus neoformans, respectively. The MICs were visually assessed after the incubation period and were considered the lowest sample concentration that inhibits the growth or the visual growth of the organism.
# (§3) The positive controls were oxacillin (Sigma-Aldrich, Steinheim, Germany) for bacteria and nystatin (Sigma-Aldrich, Steinheim, Germany) for yeasts, and the negative control was broth with 20 μL of DMSO. The assay was carried out in triplicate.
# [2] = test system: Cryptococcus neoformans H99; assay: Broth microdilution MIC/MMC; assay type: cell-based
# Method: as §1, §2, §3
# Escherichia coli S2(1) = assay: Broth microdilution MIC/MMC; assay type: cell-based; details: for MIC: 24 h, 37°C, read-out: MIC
# Method: as §1, §2, §3
# [3] = test system: Pseudomonas aeruginosa ATCC27853; assay: Broth microdilution MIC/MMC; assay type: cell-based; details: for MBC / MMC/MIC: Pseudomonas aeruginosa ATCC27853; for MIC: Pseudomonas aeruginosa ATCC27853, 24 h, 37°C, read-out: MIC
# Method: as §1, §2, §3
# [4] = test system: Staphylococcus aureus ATCC25923; assay: Broth microdilution MIC/MMC; assay type: cell-based; details: for MBC / MMC/MIC: Staphylococcus aureus ATCC25923; for MIC: Staphylococcus aureus ATCC25923, 24 h, 37°C, read-out: MIC
# Method: as §1, §2, §3
# [5] = test system: methicillin-resistant Staphylococcus aureus 03 (MRSA03); assay: Broth microdilution MIC/MMC; assay type: cell-based; details: for MMC/MIC / MBC: MRSA03; for MBC / MIC: Staphylococcus aureus; for MIC: MRSA03, 24 h, 37°C, read-out: MIC
# Method: as §1, §2, §3
# [6] = test system: methicillin-resistant Staphylococcus aureus 04 (MRSA04); assay: Broth microdilution MIC/MMC; assay type: cell-based; details: for MMC/MIC / MBC: MRSA04; for MBC / MIC: Staphylococcus aureus; for MIC: MRSA04, 24 h, 37°C, read-out: MIC
# Method: as §1, §2, §3
# [7] = test system: tested bacteria and yeasts; assay: Broth microdilution MIC/MMC, summary over all strains; assay type: cell-based
# Method: as §1, §2, §3
# [8] = DPPH free radical scavenging assay; details: mean ± SD
# Method: The free radical scavenging activity of extracts and compounds was evaluated according to the described method. The EC50 (μg/mL), which is the amount of sample necessary to inhibit by 50% the absorbance of free radical DPPH, was calculated. Vitamin C was used as a standard control. All the analyses were carried out in triplicate and repeated three times.
# [9] = Gallic acid equivalent antioxidant capacity (GEAC) assay; details: ABTS radical, 420 nm, 240 s; mean ± SD
# Method: The GEAC test was performed as described previously with some slight modifications. The laccase was purified from Sclerotinia sclerotiorum according to the described protocol. 20 μL of laccase (1 mM stock solution), 20 μL of test sample, 10 μL of ABTS (2,2′-azino-bis(3-ethylbenzothiazoline-6-sulfonic acid) (74 mM stock solution), and 950 μL of acetate buffer (pH = 5.0, 100 mM) were added in a quartz cuvette. The concentrations of the samples in the assay mixture were 800, 400, 200, 100, and 10 μg/mL for the extracts and 200, 100, 50, 25, and 12.5 μg/mL for the isolated compounds. The content of the generated ABTS^●+ radical was measured at 420 nm after 240 s reaction time and was converted to gallic acid equivalents by the use of a calibration curve (Pearson's correlation coefficient: r = 0.998) constructed with 0, 4, 10, 14, 28, 56, and 84 μM gallic acid standards rather than Trolox. Experiments were done in triplicate and repeated three times with similar results.
# [10] = test system: methicillin-resistant Staphylococcus aureus and methicillin-sensitive S. aureus strains; design: method as in PMID 27284353; details: MRSA and MSSA strains, previous study; cited from earlier work
# [11] = test system: Pseudomonas aeruginosa ATCC27853; assay: Bacteriolytic assay (time-kill kinetic method, OD600); assay type: cell-based; details: Pseudomonas aeruginosa suspension, 2xMIC, after 240 min, compared to the 0 time value
# Method: (§4) (1) Bacteriolytic Assay. […] Full growth of bacterium in MHB was diluted 100 times and incubated at 37°C to produce an OD600 of 0.8 as a starting inoculum. Sample solutions were added to the starting bacterial suspension to give a final concentration of 2xMIC and incubated at 37°C under agitation at 150 rpm. After the incubation period corresponding to 0, 15, 30, 60, 120, and 240 min, 100 μL was pipetted from each tube and the optical density was recorded at 600 nm using the Biobase UV-Vis spectrophotometer. Corresponding dilutions of test samples were used as blanks. Oxacillin was used as a positive control, and the tubes without an extract/compound served as negative controls. All the measurements were done in triplicate and repeated three times.
# [12] = test system: Staphylococcus aureus ATCC25923; assay: as above; assay type: cell-based; details: Staphylococcus aureus ATCC25923 suspension, 2xMIC, after 240 min, compared to the 0 time value
# Method: as §4
# catalase = assay: Catalase activity in treated bacterial cell lysates; assay type: cell-based; details: Staphylococcus aureus ATCC25923 and MRSA03, MIC and 1/2xMIC, 24 h
# Method: (§5) (3) Antioxidant Enzyme Activities. For evaluation of catalase and superoxide dismutase (SOD) activities, Staphylococcus aureus ATCC25923 and MRSA03 (1.5 × 10^8 CFU/mL, 500 μL) cultures from the late exponential growth phase were treated with MIC and 1/2xMIC of the methanol extract (500 μL), compound 5 (500 μL), and oxacillin (500 μL) solutions and incubated at 37°C for 24 h. The suspension was centrifuged at 3000 rpm for 5 min to separate the supernatant. The pellet was washed twice with PBS and resuspended in 500 μL of cell lysate buffer (1 mM EDTA, 10 Mm Tris-HCl, 0.1% Triton-X-100, and 150 mM NaCl) and incubated at 37°C for 1 h. Contents were then centrifuged at 3000 rpm for 5 min, and the supernatant was collected for enzyme activity assays.
# Catalase activity. This was assessed by using a kit (Sigma, catalogue no. CAT100) with a cell lysate. Briefly, 750 μL of assay buffer (50 mM) was mixed with 25 μL of 50 mM H2O2 and 10 μL of cell lysate. […] The absorbance was monitored at 520 nm, and the catalase activity was calculated based on the following equation: [Δμ moles (H2O2) × d × 100)/V × t], where Δμ moles (H2O2) is the difference in amount of H2O2 added to the reaction mixture between blank and given samples, d is the dilution of the original sample for catalase reaction, V is the sample volume in catalase reaction, and t is the reaction duration (min).
# [13] = test system: superoxide dismutase (SOD); assay: Superoxide dismutase (SOD) activity in treated bacterial cell lysates; assay type: cell-based; details: Staphylococcus aureus ATCC25923 and MRSA03, MIC and 1/2xMIC, 24 h
# Method: as §5
# Superoxide dismutase (SOD) activity. This was determined using a kit (Sigma, catalogue no. 19160) in the cell lysate. […] The reaction mixture was incubated in the dark at 37°C for 20 min, and the absorbance was read at 450 nm on a BioTek Synergy 2 multiplate reader. The SOD activity was calculated based on the following formula: [(ABlank1–ABlank3) − (ASample–ABlank2)/(ABlank1–ABlank3) × 100], where Blank 1 contains ultrapure water, WST solution, and enzyme solution, Blank 2 contains sample solution, WST solution, and dilution buffer, and Blank 3 contains ultrapure water, WST solution, and dilution buffer.
# red blood cells (RBCs) = assay type: cell-based, Wistar rats (Rattus norvegicus)
# Method: Wistar rats (Rattus norvegicus) aged 10–12 weeks and weighing 220 to 250 g were randomly selected from our colony. Efforts were also made to minimize animal suffering and to reduce the number of animals used in the experiment. Intraperitoneal injection of the mixture of ketamine (50 mg/kg body weight, BW) and xylazine (10 mg/kg BW) was used to anaesthetize the rats in a dose that is commonly used for operation purposes. And subsequently, the unconscious animals were quickly operated on and the whole blood (10 mL) was collected by cardiac puncture into a conical tube containing Ethylenediaminetetraacetic Acid (EDTA) as an anticoagulant. Red blood cells were harvested by centrifugation at room temperature for 10 min at 1,000 × g and were washed three times in PBS buffer^23. The haemolysis assay was evaluated as previously described.
Molecule,MBC (Escherichia coli S2(1)) [µg/mL],MMC/MIC (Escherichia coli S2(1)),MIC (Escherichia coli S2(1)) [µg/mL],MBC [3] [µg/mL],MMC/MIC [3],MIC [3] [µg/mL],MBC [4] [µg/mL],MMC/MIC [4],MIC [4] [µg/mL],MMC/MIC [5],MBC [5] [µg/mL],MIC [5] [µg/mL],MMC/MIC [6],MBC [6] [µg/mL],MIC [6] [µg/mL],further results
"O=c1cc(-c2ccc(O)c(O)c2)oc2cc(O)cc(O)c12 [compound 3, luteolin]",32,1,32,64,2,32,64,2,32,1,16,16,2,64,32,"MFC ([1]; Candida albicans ATCC10231): 32 µg/mL; MMC/MIC ([1]; Candida albicans ATCC10231): 2; MIC ([1]; Candida albicans ATCC10231, 48 h, 30°C, read-out: MIC): 16 µg/mL; MFC ([2]; Cryptococcus neoformans H99): 16 µg/mL; MMC/MIC ([2]; Cryptococcus neoformans H99): 2; MIC ([2]; Cryptococcus neoformans H99, 72 h, 30°C, read-out: MIC): 8 µg/mL; antimicrobial activity class of pure compounds by cutoff points ([7]; against specific microorganism, cutoff points of ref 33): significant/moderate; MIC ([7]; read-out: MIC (range over the tested microorganisms)): 8 to 32 µg/mL; DPPH free radical scavenging activity (EC50) [8]: 8.02 ± 1.16^e μg/mL; Gallic acid equivalent antioxidant capacity (GEAC) [9]: 68.30 ± 0.71^f μg/mL; MIC [10]: 62.5 µg/mL"
"Cc1onc(-c2ccccc2)c1C(=O)N[C@@H]1C(=O)N2[C@@H]1SC(C)(C)[C@@H]2C(=O)O [oxacillin, reference compound]",32,2,16,2,1,2,1,1,1,2,8,4,1,8,8,MMC/MIC (microbicidal activities) ([7]; against all the tested microorganisms): ≤ 4; decline in cell turbidity [11]: 2%; decline in cell turbidity [12]: 2%; catalase activity vs untreated cell lysates (catalase): significant concentration-dependent decreases; SOD activity vs untreated cell lysates [13]: significant concentration-dependent decreases
Triton X-100,,,,,,,,,,,,,,,,lysis of RBCs (red blood cells (RBCs)): about 100%

# — paper PMC8556085, “Antimicrobial and Antioxidant Secondary Metabolites from Trifolium baccarinii Chiov. (Fabaceae) and Their Mechanisms of Antibacterial Action” (BioMed Research International, 2021)
